According to ChEMBL document CHEMBL6092174, “Synthesis and anti-influenza virus activity of substituted dibenzoxepine-based baloxavir derivatives” (Eur J Med Chem, 2024):
Active and inactive are the calls of the source. No cut-off for these calls is given here.

Tests used:
[1] = Selectivity index, ratio of CC50 for cytotoxicty against MDCK cells to EC50 for antiviral activity against Influenza A virus H3N2 (A/Aichi/2/68) infected in dog MDCK cells; assay type: toxicity, cell-based; conditions: read-out: Selectivity Index
[2] = Cytotoxicity against dog MDCK cells assessed as reduction in cell viability incubated for 2 days by CCK-8 assay; assay type: toxicity, cell-based, Canis lupus familiaris; conditions: time 2 day
Influenza A virus [3] = assay: Antiviral activity against Influenza A virus H3N2 (A/Aichi/2/68) infected in dog MDCK cells assessed as reduction in cytopathic effect incubated for 2 days; assay type: functional, organism-based; conditions: 48 h
Influenza A virus [4] = assay: Potency index, ratio of baloxavir EC50 to test compound EC50 for antiviral activity against Influenza A virus H3N2 (A/Aichi/2/68) infected in dog MDCK cells assessed as reduction in cytopathic effect incubated for 2 days; assay type: functional; conditions: time 2 day
Influenza A virus [5] = assay: Antiviral activity against Influenza A virus H1N1 infected in dog MDCK cells assessed as reduction in polymerase acidic protein expression at 10 to 20 nM by Western blot analysis; assay type: functional, organism-based; conditions: dose 10-20 nM
[6] = Half life in CD-1 mouse at 15 mg/kg, po measured upto 24 hrs by LC-MS/MS analysis; assay type: ADME, organism-based; conditions: in vivo
Influenza A virus [7] = assay: Antiviral activity against Influenza A virus H1N1 infected in dog MDCK cells assessed as disruption of nuclear protein expression at 10 to 20 nM by Western blot analysis; assay type: functional, organism-based; conditions: dose 10-20 nM
[8] = MRT (0 to infinity) in CD-1 mouse at 1 mg/kg, iv measured upto 24 hrs by LC-MS/MS analysis; assay type: ADME, organism-based; conditions: in vivo
[9] = Metabolic stability in human liver microsomes assessed as intrinsic clearance at 1 uM incubated for 60 mins in presence of NADPH by LC-MS/MS analysis; assay type: ADME, Microsome; conditions: 1 h
[10] = Tmax in CD-1 mouse at 1 mg/kg, iv measured upto 24 hrs by LC-MS/MS analysis; assay type: ADME, organism-based; conditions: in vivo
[11] = Metabolic stability in mouse liver microsomes assessed as half life at 1 uM in presence of NADPH by LC-MS/MS analysis; assay type: ADME, Microsome; conditions: time 60 min
[12] = Metabolic stability in mouse liver microsomes assessed as intrinsic clearance at 1 uM incubated for 60 mins in presence of NADPH by LC-MS/MS analysis; assay type: ADME, Microsome; conditions: 1 h
[13] = Half life in CD-1 mouse at 1 mg/kg, iv measured upto 24 hrs by LC-MS/MS analysis; assay type: ADME, organism-based; conditions: in vivo
Influenza A virus [14] = assay: Antiviral activity against Influenza A virus H1N1(A/FM/1/47) infected in dog MDCK cells assessed as reduction in cytopathic effect incubated for 2 days; assay type: functional, organism-based; conditions: 48 h
[15] = Cmax in CD-1 mouse at 1 mg/kg, iv measured upto 24 hrs by LC-MS/MS analysis; assay type: ADME, organism-based; conditions: in vivo
[16] = Tmax in CD-1 mouse at 15 mg/kg, po measured upto 24 hrs by LC-MS/MS analysis; assay type: ADME, organism-based; conditions: in vivo
[17] = Metabolic stability in human liver microsomes assessed as half life at 1 uM in presence of NADPH by LC-MS/MS analysis; assay type: ADME, Microsome; conditions: time 60 min
Influenza B virus = assay: Antiviral activity against Influenza B virus IBV/Lee/40 infected in dog MDCK cells assessed as reduction in cytopathic effect incubated for 2 days by TCID50 method; assay type: functional, organism-based; conditions: IBV/Lee/40, MDCK, 48 h
HEK293T [18] = assay: Inhibition of Influenza A virus RdRp transfected in HEK293T co-expressing PB1/PB2/PA/NP/firefly luciferase/Renilla luciferase incubated for 24 hrs relative to control; assay type: cell-based; conditions: dose or concentration not given here
[19] = Oral bioavailability in CD-1 mouse at 15 mg/kg measured upto 24 hrs by LC-MS/MS analysis; assay type: ADME, organism-based; conditions: in vivo
Influenza A virus [20] = assay: Antiviral activity against Influenza A virus H1N1(A/Puetro Rico/8/34) infected in dog MDCK cells assessed as reduction in cytopathic effect incubated for 2 days; assay type: functional, organism-based; conditions: 48 h
[21] = Cmax in CD-1 mouse at 15 mg/kg, po measured upto 24 hrs by LC-MS/MS analysis; assay type: ADME, organism-based; conditions: in vivo
[22] = MRT (0 to infinity) in CD-1 mouse at 15 mg/kg, po measured upto 24 hrs by LC-MS/MS analysis; assay type: ADME, organism-based; conditions: in vivo
[23] = AUC (0 to infinity) in CD-1 mouse at 15 mg/kg, po measured upto 24 hrs by LC-MS/MS analysis; assay type: ADME, organism-based; conditions: in vivo
[24] = AUC (0 to infinity) in CD-1 mouse at 1 mg/kg, iv measured upto 24 hrs by LC-MS/MS analysis; assay type: ADME, organism-based; conditions: in vivo
HEK293T [25] = assay: Inhibition of Influenza A virus RdRp transfected in HEK293T co-expressing PB1/PB2/PA/NP/firefly luciferase/Renilla luciferase at 1 nM incubated for 24 hrs relative to control; assay type: cell-based

SMILES: N#Cc1ccc2c(c1)COc1ccccc1[C@H]2N1[C@@H]2COCCN2C(=O)c2c(O)c(=O)ccn21
- selectivity ratio [1]: > 5300
- CC50 at 48 h [2]: > 50000 nM
- EC50 (Influenza A virus [3]): 9.43 nM

SMILES: O=C1c2c(O)c(=O)ccn2N([C@H]2c3ccccc3COc3ccccc32)[C@@H]2COCCN12
- selectivity ratio [1]: > 47200
- CC50 at 48 h [2]: > 50000 nM
- EC50 (Influenza A virus [3]): 1.06 nM

SMILES: O=C1c2c(O)c(=O)ccn2N([C@@H]2c3ccccc3OCc3c(Cl)cccc32)[C@@H]2COCCN12
- selectivity ratio [1]: 31600
- CC50 at 48 h [2]: 24600 nM
- Ratio (Influenza A virus [4]): >5
- Activity (Influenza A virus [5]): Active
- half-life [6]: 4.45 h
- Activity (Influenza A virus [7]): Active
- MRT inf [8]: 2.57 h
- CLint [9]: 9 µL/min/mg
- Tmax [10]: 4.8 min
- EC50 (Influenza A virus [3]): 0.78 nM
- half-life at 1 µM [11]: 2.27 h
- CLint [12]: 10.2 µL/min/mg
- half-life [13]: 1.99 h
- EC50 (Influenza A virus [14]): 6.1 nM
- Cmax [15]: 258 ng/mL
- Tmax [16]: 2.67 h
- half-life at 1 µM [17]: 2.57 h
- EC50 (Influenza B virus): 2.32 nM
- inhibition (HEK293T [18]): 72%
- bioavailability [19]: 31.5%
- EC50 (Influenza A virus [20]): 14.4 nM
- Cmax [21]: 222 ng/mL
- MRT inf [22]: 6.25 h
- AUC(0-inf) [23]: 1680 ng·h/mL
- AUC(0-inf) [24]: 355 ng·h/mL

SMILES: O=C1c2c(O)c(=O)ccn2N([C@@H]2c3ccccc3OCc3c(F)cccc32)[C@@H]2COCCN12
- selectivity ratio [1]: > 5940
- CC50 at 48 h [2]: > 50000 nM
- EC50 (Influenza A virus [3]): 8.41 nM

SMILES: CCOC(=O)Cc1ccc2c(c1)[C@@H](N1[C@@H]3COCCN3C(=O)c3c(O)c(=O)ccn31)c1ccccc1CO2
- selectivity ratio [1]: > 71
- CC50 at 48 h [2]: > 50000 nM
- EC50 (Influenza A virus [3]): 705 nM

SMILES: O=C(O)Cc1ccccc1Nc1c(Cl)cccc1Cl [DICLOFENAC]
- CLint [9]: 246 µL/min/mg
- half-life at 1 µM [11]: 0.672 h
- CLint [12]: 34.4 µL/min/mg
- half-life at 1 µM [17]: 0.0938 h

SMILES: O=C1c2c(O)c(=O)ccn2N([C@@H]2c3ccccc3COc3cc(F)ccc32)[C@@H]2COCCN12
- selectivity ratio [1]: > 12800
- CC50 at 48 h [2]: > 50000 nM
- EC50 (Influenza A virus [3]): 3.91 nM

SMILES: N#Cc1ccc2c(c1)COc1ccccc1[C@@H]2N1[C@@H]2COCCN2C(=O)c2c(O)c(=O)ccn21
- selectivity ratio [1]: > 5690
- CC50 at 48 h [2]: > 50000 nM
- EC50 (Influenza A virus [3]): 8.79 nM

SMILES: CCOC(=O)Cc1ccc2c(c1)[C@H](N1[C@@H]3COCCN3C(=O)c3c(O)c(=O)ccn31)c1ccccc1CO2
- selectivity ratio [1]: > 1390
- CC50 at 48 h [2]: > 50000 nM
- EC50 (Influenza A virus [3]): 36 nM

SMILES: O=C1c2c(O)c(=O)ccn2N([C@H]2c3ccccc3OCc3c(Cl)cccc32)[C@@H]2COCCN12
- selectivity ratio [1]: 23200
- CC50 at 48 h [2]: 15600 nM
- EC50 (Influenza A virus [3]): 0.67 nM

SMILES: O=C1c2c(O)c(=O)ccn2N([C@H]2c3ccccc3COc3cc(F)ccc32)[C@@H]2COCCN12
- selectivity ratio [1]: > 42700
- CC50 at 48 h [2]: > 50000 nM
- EC50 (Influenza A virus [3]): 1.17 nM

SMILES: O=C1c2c(O)c(=O)ccn2N([C@H]2c3ccccc3OCc3c2ccc(F)c3F)[C@@H]2COCCN12
- selectivity ratio [1]: 15900
- CC50 at 48 h [2]: 33000 nM
- EC50 (Influenza A virus [3]): 2.08 nM

SMILES: O=C1c2c(O)c(=O)ccn2N([C@H]2c3ccc(F)cc3COc3ccccc32)[C@@H]2COCCN12
- selectivity ratio [1]: > 64100
- CC50 at 48 h [2]: > 50000 nM
- Ratio (Influenza A virus [4]): >5
- Activity (Influenza A virus [5]): Active
- half-life [6]: 2.83 h
- Activity (Influenza A virus [7]): Active
- MRT inf [8]: 2.91 h
- CLint [9]: 2 µL/min/mg
- Tmax [10]: 4.8 min
- EC50 (Influenza A virus [3]): 0.78 nM
- half-life at 1 µM [11]: 2.45 h
- CLint [12]: 9.4 µL/min/mg
- half-life [13]: 2.6 h
- EC50 (Influenza A virus [14]): 1.65 nM
- Cmax [15]: 211 ng/mL
- Tmax [16]: 1.33 h
- half-life at 1 µM [17]: 11.6 h
- EC50 (Influenza B virus): 2.12 nM
- inhibition (HEK293T [18]): 82.6%
- bioavailability [19]: 54.3%
- EC50 (Influenza A virus [20]): 3.32 nM
- Cmax [21]: 548 ng/mL
- MRT inf [22]: 4 h
- AUC(0-inf) [23]: 2790 ng·h/mL
- AUC(0-inf) [24]: 343 ng·h/mL

SMILES: O=C1c2c(O)c(=O)ccn2N([C@H]2c3ccccc3COc3cc(C(F)(F)F)ccc32)[C@@H]2COCCN12
- selectivity ratio [1]: > 2010
- CC50 at 48 h [2]: > 50000 nM
- EC50 (Influenza A virus [3]): 24.9 nM

SMILES: O=C1c2c(O)c(=O)ccn2N([C@@H]2c3ccccc3COc3c2ccc(F)c3F)[C@@H]2COCCN12
- selectivity ratio [1]: 13500
- CC50 at 48 h [2]: 22100 nM
- EC50 (Influenza A virus [3]): 1.64 nM

SMILES: O=C1c2c(O)c(=O)ccn2N([C@@H]2c3ccccc3OCc3c2ccc(F)c3F)[C@@H]2COCCN12
- selectivity ratio [1]: 11400
- CC50 at 48 h [2]: 19100 nM
- EC50 (Influenza A virus [3]): 1.68 nM

SMILES: O=C1c2c(O)c(=O)ccn2N([C@@H]2c3ccccc3SCc3c2ccc(F)c3F)[C@@H]2COCCN12 [BALOXAVIR]
- CC50 at 48 h [2]: 9300 nM
- half-life [6]: 3.78 h
- MRT inf [8]: 3 h
- CLint [9]: 7.6 µL/min/mg
- Tmax [10]: 4.8 min
- half-life at 1 µM [11]: 2.68 h
- CLint [12]: 8.6 µL/min/mg
- half-life [13]: 2.8 h
- Cmax [15]: 205 ng/mL
- Tmax [16]: 1.67 h
- half-life at 1 µM [17]: 3.03 h
- EC50 (Influenza B virus): 2.02 nM
- inhibition (HEK293T [25]): 76.9%
- EC50 (Influenza A virus [20]): 1.85 nM
- Cmax [21]: 523 ng/mL
- MRT inf [22]: 4.63 h

SMILES: O=C1c2c(O)c(=O)ccn2N([C@H]2c3ccccc3COc3c2ccc(F)c3F)[C@@H]2COCCN12
- selectivity ratio [1]: 6460
- CC50 at 48 h [2]: 33300 nM
- EC50 (Influenza A virus [3]): 5.16 nM

SMILES: O=C1c2c(O)c(=O)ccn2N([C@@H]2c3ccccc3COc3ccccc32)[C@@H]2COCCN12
- selectivity ratio [1]: > 28600
- CC50 at 48 h [2]: > 50000 nM
- EC50 (Influenza A virus [3]): 1.75 nM

SMILES: O=C1c2c(O)c(=O)ccn2N([C@@H]2c3ccccc3COc3cc(C(F)(F)F)ccc32)[C@@H]2COCCN12
- selectivity ratio [1]: > 2910
- CC50 at 48 h [2]: > 50000 nM
- EC50 (Influenza A virus [3]): 17.2 nM

SMILES: O=C1c2c(O)c(=O)ccn2N([C@@H]2c3ccc(F)cc3COc3ccccc32)[C@@H]2COCCN12
- selectivity ratio [1]: 14100
- CC50 at 48 h [2]: 35200 nM
- EC50 (Influenza A virus [3]): 2.5 nM

SMILES: O=C1c2c(O)c(=O)ccn2N([C@H]2c3ccccc3OCc3c(F)cccc32)[C@@H]2COCCN12
- selectivity ratio [1]: > 6390
- CC50 at 48 h [2]: > 50000 nM
- EC50 (Influenza A virus [3]): 7.82 nM
